Among the test systems are NCI-H522 lung; SK-MEL-2 melanoma; OVCAR-4 ovarian; SK-MEL-28 melanoma; SN12C renal; PC-3 prostate; RXF 393 renal; SF-295 CNS; SF-539 CNS; SW-620 colon.
Assay in all cases: growth of human tumour cells (NCI), 48 h

Several values for one entry are separate records, joined by “and”; a condition that tells them apart may be missing. Equal entries are not always repeated.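 All cell lines were grown in 96-well plates and treated with compound for 48 hours. Abbreviation: GI50, concentration required for 50% inhibition of growth. TGI denotes the concentration required for complete inhibition of growth.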 Some results are limits rather than exact numbers.

With `CCN1CCN(c2cc(C)c3cc(NC(=O)c4ccc(OC)c(OC)c4)ccc3n2)CC1`, the GI50 was 485 nM in the assay with NCI-H522 lung; over 40500 nM with SK-MEL-2 melanoma; 11000 nM in the assay with OVCAR-4 ovarian; 19900 nM in the assay on SK-MEL-28 melanoma; over 100000 nM in the assay with SN12C renal; 7300 nM with PC-3 prostate. Also, the GI50 with RXF 393 renal was 2810 nM; in the assay with SF-295 CNS, 11800 nM; in the assay with SF-539 CNS it was 5440 nM; in the assay with SW-620 colon, 4210 nM. The TGI with NCI-H522 lung is 16900 nM; with SK-MEL-2 melanoma, over 61800 nM; in the assay with OVCAR-4 ovarian, over 100000 nM; in the assay with SK-MEL-28 melanoma, over 59700 nM; in the assay with SN12C renal, over 100000 nM; with PC-3 prostate, over 100000 nM. Further, the TGI in the assay on RXF 393 renal was over 100000 nM; in the assay with SF-295 CNS, 38500 nM; in the assay on SF-539 CNS, over 44800 nM; in the assay on SW-620 colon, over 42300 nM.

As for `CCOc1ccc(/C=C2\N=C(c3ccc([N+](=O)[O-])cc3)OC2=O)cc1`, the TGI in the assay on NCI-H522 lung, with SK-MEL-2 melanoma, in the assay on OVCAR-4 ovarian, with SK-MEL-28 melanoma, in the assay with SN12C renal and in the assay with PC-3 prostate was over 100000 nM in each case. Besides, the TGI with RXF 393 renal, with SF-295 CNS, in the assay with SF-539 CNS and in the assay on SW-620 colon was over 100000 nM throughout.

As to `COc1ccc2nc3ccccc3c(NCc3ccc(F)cc3)c2c1`, the GI50 in the assay on NCI-H522 lung was 2060 nM; in the assay with SK-MEL-2 melanoma, 3190 nM; in the assay on OVCAR-4 ovarian, 2270 nM; with SK-MEL-28 melanoma, 2900 nM; in the assay on SN12C renal, 1830 nM; in the assay on PC-3 prostate, 1960 nM. Besides, the GI50 with RXF 393 renal was 1130 nM; in the assay on SF-295 CNS, 1580 nM; in the assay on SF-539 CNS, 1760 nM; in the assay with SW-620 colon, 1630 nM. Also, the TGI worked out at 9380 nM in the assay with NCI-H522 lung; 10400 nM with SK-MEL-2 melanoma; 8230 nM in the assay with OVCAR-4 ovarian; 9270 nM with SK-MEL-28 melanoma; 7320 nM with SN12C renal; 8010 nM in the assay with PC-3 prostate. For the same compound, the TGI was 3100 nM with RXF 393 renal, 6480 nM in the assay on SF-295 CNS, 6540 nM in the assay with SF-539 CNS and 7030 nM in the assay on SW-620 colon.

In the case of `Cc1cc(N[C@@H]2CCC[C@H](Nc3ccnc4cc(Cl)ccc34)C2)nc(N2CCCCCC2)n1`, the GI50 in the assay with NCI-H522 lung is 1930 nM; with SK-MEL-2 melanoma it was 2070 nM; in the assay on OVCAR-4 ovarian, 1720 nM; in the assay on SK-MEL-28 melanoma, 1850 nM; in the assay with SN12C renal, 1550 nM; in the assay on PC-3 prostate, 1810 nM. The GI50 in the assay on RXF 393 renal is 1550 nM; with SF-295 CNS, 1320 nM; in the assay with SF-539 CNS, 1590 nM; in the assay on SW-620 colon, 1520 nM. The TGI in the assay with NCI-H522 lung is 4000 nM; in the assay with SK-MEL-2 melanoma, 4520 nM; in the assay with OVCAR-4 ovarian, 5040 nM; in the assay on SK-MEL-28 melanoma it was 3620 nM; in the assay on SN12C renal it was 3110 nM; in the assay on PC-3 prostate, 4050 nM. The TGI with RXF 393 renal was determined as 3100 nM; in the assay with SF-295 CNS, 2740 nM; in the assay on SF-539 CNS, 3030 nM; in the assay on SW-620 colon, 3280 nM.

Take `CNCCOC(=O)/C=C1\CC[C@H]2[C@@H]([C@@H](O)C(=O)[C@@H]3[C@]2(C)CC[C@H](O)[C@]3(C)C(=O)OC)[C@H]1C`: the GI50 in the assay with NCI-H522 lung was 249 nM; in the assay on SK-MEL-2 melanoma, 1790 nM; in the assay with OVCAR-4 ovarian it was 222 nM; in the assay on SK-MEL-28 melanoma, 1060 nM; in the assay with SN12C renal, 327 nM; with PC-3 prostate, 369 nM. The GI50 is 205 nM in the assay on RXF 393 renal, 301 nM in the assay on SF-295 CNS, 267 nM with SF-539 CNS and 318 nM in the assay with SW-620 colon. Moreover, the TGI in the assay on NCI-H522 lung was 813 nM; with SK-MEL-2 melanoma it was 4570 nM; in the assay with OVCAR-4 ovarian, 484 nM; in the assay on SK-MEL-28 melanoma, 2610 nM; with SN12C renal, 1640 nM; in the assay on PC-3 prostate it was 2340 nM. In addition, the TGI in the assay on RXF 393 renal was found to be 579 nM; with SF-295 CNS, 951 nM; in the assay with SF-539 CNS, 701 nM; in the assay on SW-620 colon, 1140 nM.

On to `O=C(Nc1cc(C(F)(F)F)cc(C(F)(F)F)c1)c1cc(Cl)ccc1O`, for which the GI50 was 186 nM and 214 nM in the assay on NCI-H522 lung; 209 nM and 206 nM with SK-MEL-2 melanoma; 294 nM and 288 nM in the assay on OVCAR-4 ovarian; 285 nM and 199 nM in the assay with SK-MEL-28 melanoma; 224 nM and 202 nM in the assay on SN12C renal; 257 nM and 266 nM in the assay on PC-3 prostate. Further, the GI50 in the assay on RXF 393 renal was 245 nM and 190 nM; in the assay with SF-295 CNS, 179 nM and 173 nM; in the assay with SF-539 CNS, 300 nM and 264 nM; in the assay on SW-620 colon, 316 nM and 312 nM. Also, the TGI with NCI-H522 lung is 818 nM and 1900 nM; with SK-MEL-2 melanoma, 589 nM and 981 nM; in the assay on OVCAR-4 ovarian, > 10000 nM and 13400 nM; in the assay on SK-MEL-28 melanoma, 1840 nM and 1310 nM; with SN12C renal, > 2730 nM and 1540 nM; in the assay with PC-3 prostate it was > 3020 nM and 3780 nM. Further, the TGI in the assay with RXF 393 renal was 1160 nM and 673 nM; with SF-295 CNS, 479 nM and 402 nM; with SF-539 CNS, 1880 nM and 1590 nM; in the assay with SW-620 colon, 3260 nM and 10400 nM.

On to `CCOC(=O)Nc1cc2c(c(N)n1)N=C(c1ccccc1)CO2`, for which the GI50 in the assay with NCI-H522 lung was 268 nM; with SK-MEL-2 melanoma, 41700 nM; in the assay with OVCAR-4 ovarian, 2460 nM; in the assay with SK-MEL-28 melanoma, 15600 nM; in the assay on SN12C renal, 840 nM; in the assay on PC-3 prostate it was 182 nM. Further, the GI50 with RXF 393 renal is 275 nM; in the assay on SF-295 CNS, 224 nM; with SF-539 CNS, 195 nM; in the assay with SW-620 colon, 49.6 nM. For the same compound, the TGI with NCI-H522 lung was 13000 nM; in the assay with SK-MEL-2 melanoma, over 100000 nM; with OVCAR-4 ovarian, 36400 nM; in the assay with SK-MEL-28 melanoma it was 77700 nM; with SN12C renal, 31100 nM; in the assay on PC-3 prostate, 6440 nM. Further, the TGI in the assay with RXF 393 renal came out at 32100 nM; in the assay with SF-295 CNS, 14200 nM; with SF-539 CNS it was 789 nM; in the assay on SW-620 colon, 98200 nM.

As to `CN(C)C1CCN(C(=O)c2ccc(NC(=O)Nc3ccc(-c4nc(N5CCOCC5)c5cccn5n4)cc3)cc2)CC1`, the GI50 is 37.7 nM in the assay with NCI-H522 lung; 83.3 nM in the assay with SK-MEL-2 melanoma; 13.7 nM in the assay with OVCAR-4 ovarian; 72.4 nM in the assay with SK-MEL-28 melanoma; 36.5 nM in the assay on SN12C renal; 39.7 nM in the assay on PC-3 prostate. The GI50 with RXF 393 renal is 88 nM; in the assay with SF-295 CNS, 71.9 nM; with SF-539 CNS it was 45.3 nM; in the assay with SW-620 colon, 128 nM. Also, the TGI with NCI-H522 lung was 19100 nM; in the assay with SK-MEL-2 melanoma it was 1430 nM; with OVCAR-4 ovarian, 72.1 nM; with SK-MEL-28 melanoma, 849 nM; in the assay on SN12C renal, 14700 nM; in the assay with PC-3 prostate, 2100 nM. In addition, the TGI in the assay with RXF 393 renal was found to be 604 nM; in the assay with SF-295 CNS, 512 nM; in the assay on SF-539 CNS, 406 nM; in the assay with SW-620 colon, 11800 nM.

(Values after PubChem BioAssay (NCI).)
